The values that follow come from patent US20110251188A1, “ACENAPHTHO HETEROCYCLE COMPOUNDS, CYCLODEXTRIN INCLUSION COMPOUNDS AND COMPLEXES, AND USES IN THE MANUFACTURES OF BH3 PROTEIN ANALOGUE, BCL-2 FAMILY PROTEIN INHIBITORS THEREOF” (DALIAN UNIVERSITY OF TECHNOLOGY, priority 2008, published 2011).

In brackets after ≈: the same amount, converted by molar mass.

For the first data set, the target named is T1, GST-Bcl-2 protein (Homo sapiens, UniProt P10415).
T1 construct: fused on or other part: GST tag on Bcl-2
T1 sequence (P10415 whole entry, the tested form may be a part): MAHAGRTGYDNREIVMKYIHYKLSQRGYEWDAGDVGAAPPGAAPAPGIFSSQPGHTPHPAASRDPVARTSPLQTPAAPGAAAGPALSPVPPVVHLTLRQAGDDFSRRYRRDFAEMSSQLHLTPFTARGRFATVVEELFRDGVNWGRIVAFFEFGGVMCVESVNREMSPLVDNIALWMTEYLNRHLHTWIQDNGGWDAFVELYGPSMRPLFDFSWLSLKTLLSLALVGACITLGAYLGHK
The experiment in a line: fluorescence polarization assay, competitive binding against FAM-Bid peptide. The settings on record: Table 3; FAM-Bid competition; table does not say whether Bcl-2 or Mcl-1; read-out: Binding constant. The procedure: A Bid BH3 peptide (amino acids: 79-99: […]) having 21 amino acids was synthesized and marked with 6-carboxyfluorescein N-succinimidyl ester (FAM) as fluorescent tag (FAM-Bid) at the N-terminal. The reaction system used in the competitive binding experiment was GST-Bcl-2 protein (40 nM) or Mcl-1 protein, which was dissolved in the reaction buffer (100 mM K3PO4, pH 7.5; 100 μg/ml bovine γ albumin; 0.02% sodium azide) together with FAM-Bid polypeptide (5 nM). In a 96-well plate, 100 μL of the reaction system was added into each well. Then 1 μL different concentration of 3-thiomorpholinyl-8-oxo-8H-acenaphtho[1,2-b]pyrrole-9-carbonitrile mother solution to be detected dissolved in DMSO was added thereinto until the final concentration met the experimental design requirements. Meanwhile, two control groups were established, one with the reaction system only contains Bcl-2 or Mcl-1 and FAM-Bid (equivalent to 0% inhibition rate), the other with the reaction system only containing FAM-Bid peptide. After 4 hours of incubation, the 96-well plate was detected by enzyme-labelled meter. The fluorescent polarization value (mP) was tested at […]. Ki value was deduced according to calculation formula. The competitive binding constant between the compound and Bcl-2 was 310 nM.
A general note: Polarisation of emitted light reports the rotation of a fluorescent probe.
For the compound `N#CC1=C2C(=NC1=O)c1cccc3cccc2c13` [8-oxo-8H-acenaphtho[1,2-b]pyrrole-9-carbonitrile], the Ki was found to be 0.3 nM.

For the next data set, the system named is MCF-7 cells. The data set can be described thus: cytotoxicity depending on BAX/BAK, MTT, MCF-7 cells with or without BAX/BAK interfering plasmid. The data set is classed as cell-based.
Conditions: not given
How it is done: 3 ng of BAX/BAK interfering plasmid was transfected into MCF-7 cells by using calcium phosphate coprecipitation method, 24 hours later, the cells were collected. The expressions after the BAX and BAK proteins interfered with RNA was detected by Western, and the cell groups without plasmid transfection were treated similarly and were set as the control group. The transfected cells were inoculated in a 96-well plate (1×10^5 cells/well), the control experiment of the cell group without plasmid transfection was carried out in parallel. The compound 3-thiomorpholinyl-8-oxo-8 H-acenaphtho[1,2-b]pyrrole-9-carbonitrile to be detected was added thereinto according to the concentration gradient designed before the experiment. 48 hours later, the cellular vitality was detected by MTT. The experimental results were shown in FIG. 6, Gossypol as nonspecific BH3 analogue was treated in parallel.
Turning to `N#CC1=C2C(=NC1=O)c1cccc3cccc2c13` [8-oxo-8H-acenaphtho[1,2-b]pyrrole-9-carbonitrile], the “dependence of cytotoxicity on BAX/BAK” value is on record as “absolute dependence on BAX/BAK”.

For another data set, the system named is Mcl-1. The experiment in a line: Western blotting, inhibition (downregulation) of Mcl-1 in tumor cells, Example 23. The settings on record: 6 hours. The data set is classed as cell-based. The procedure:
(§1) The interest protein was detected by the corresponding antibody. The expression of the interest protein in the cells was detected by horseradish peroxidase-labeled secondary antibodies in combination with ECL coloration method. […] The concentration of the protein bands in the Western images were carried out semiquantitative analysis and normalization treatment with KODAK Gel Logic 1500 imaging system software.
(A western blot detects proteins with antibodies after separation by electrophoresis.)
As for `N#CC1=C2C(=NC1=O)c1cccc3cccc2c13` [8-oxo-8H-acenaphtho[1,2-b]pyrrole-9-carbonitrile], the “downregulation of Mcl-1 protein, semiquantitative analysis (band concentration, control = 1)” value (from here on “downregulation of Mcl-1 protein”) turned out to be 0.99.

The same data set, now with this note: 12 hours.
For `N#CC1=C2C(=NC1=O)c1cccc3cccc2c13` [8-oxo-8H-acenaphtho[1,2-b]pyrrole-9-carbonitrile], the “downregulation of Mcl-1 protein” value came out at 0.99.

Staying with this data set, now noted: 18 hours.
For the compound `N#CC1=C2C(=NC1=O)c1cccc3cccc2c13` [8-oxo-8H-acenaphtho[1,2-b]pyrrole-9-carbonitrile], the “downregulation of Mcl-1 protein” value was 0.48.

The same data set, now with this note: 24 hours.
Turning to `N#CC1=C2C(=NC1=O)c1cccc3cccc2c13` [8-oxo-8H-acenaphtho[1,2-b]pyrrole-9-carbonitrile], the “downregulation of Mcl-1 protein” value is reported as 0.21.

Still in this data set, the particulars now being: Western blotting, tumor cells.
Turning to `N#CC1=C2C(=NC1=O)c1cccc3cccc2c13` [8-oxo-8H-acenaphtho[1,2-b]pyrrole-9-carbonitrile], the “inhibition against Mcl-1” value is “had the inhibition against Bcl-2 and Mcl-1 proteins”.

Another data set has as its system Bcl-2. The data set can be described thus: Western blotting, inhibition (downregulation) of Bcl-2 in tumor cells, Example 23. The data set is classed as cell-based. The settings on record: 2 hours. How it is done:
as §1
Take `N#CC1=C2C(=NC1=O)c1cccc3cccc2c13` [8-oxo-8H-acenaphtho[1,2-b]pyrrole-9-carbonitrile]: the “downregulation of Bcl-2 protein, semiquantitative analysis (band concentration, control = 1)” value (from here on “downregulation of Bcl-2 protein”) turned out to be 0.78.

The same data set, now with this note: 6 hours.
Consider `N#CC1=C2C(=NC1=O)c1cccc3cccc2c13` [8-oxo-8H-acenaphtho[1,2-b]pyrrole-9-carbonitrile], for which the “downregulation of Bcl-2 protein” value is reported as 0.69.

Still in this data set, the particulars now being: Western blotting, tumor cells.
For the compound `N#CC1=C2C(=NC1=O)c1cccc3cccc2c13` [8-oxo-8H-acenaphtho[1,2-b]pyrrole-9-carbonitrile], the “inhibition against Bcl-2” value is “had the inhibition against Bcl-2 and Mcl-1 proteins”.

The subject of the next data set is Bcl-2. The data set can be described thus: Western blotting, compounds compared with cyclodextrin inclusion compounds and complexes, Example 24. The data set is classed as cell-based. The settings on record: Table 9; 10 μM or equivalent of inclusion compound, 24 hours. How it is done: (§2) The cells were inoculated in a 6-well plate (2×10^5 cells/well). In the compound group, the compound 3-thiomorpholinyl-8-oxo-8H-acenaphtho[1,2-b]pyrrole-9-carbonitrile was dissolved into DMSO until the final concentration reached 10 μM. In the inclusion group, γ-cyclodextrin inclusion, which had been dissolved into water and was equivalent to 10 μM of the compound, was added thereinto. 24 hours later, the cells were washed with PBS for three times, then the cell sample was collected and cracked with 1×10^6/50 μl cell lysis solution (62.5 mM Tris-HCL pH 6.8; 2% SDS; 10% glycerol; 50 mM DTT; 0.01% bromphenol blue) at low temperature, then the solution was centrifuged and the protein supernatant was collected. The sample was boiled at 100° C. for 5 minutes and then was separated by electrophoresis on 12% SDS-PAGE and transferred. The interest protein was detected by the corresponding antibody. The expression of the interest protein in the cells was detected by horseradish peroxidase-labeled secondary antibodies in combination with ECL coloration method. […] The concentration of the protein bands in the Western figures were carried out semiquantitative analysis and normalization treatment with KODAK Gel Logic 1500 imaging system software.
On to `N#CC1=C2C(=NC1=O)c1cccc3cccc2c13` [8-oxo-8H-acenaphtho[1,2-b]pyrrole-9-carbonitrile], for which the “downregulation of Bcl-2 protein” value was 0.69.

The subject of a further data set is Mcl-1. Described as above. The data set is classed as cell-based. As to conditions: Table 8; 10 μM or equivalent of inclusion compound, 24 hours. The procedure:
as §2
In the case of `N#CC1=C2C(=NC1=O)c1cccc3cccc2c13` [8-oxo-8H-acenaphtho[1,2-b]pyrrole-9-carbonitrile], the “downregulation of Mcl-1 protein” value is 0.77.

The subject of a further data set is hepatoma carcinoma cells H22. The experiment in a line: in vivo tumor model, subcutaneous H22 tumor in Kunming mice. As to conditions: experimental group 2: peritoneal injection of DMSO solution, 0.3 mg/kg BW every other day, 10 days; tumor volume on the fortieth day. The procedure:
The Kunming mice (in China) were randomly divided into groups, with 10 mice in each group. The cultivated hepatoma carcinoma cells H22 were inoculated subcutaneously in the oxter of the mice with 200 μL/mouse. After bearing the cancer cells for five days, the subcutaneous tumor was formed. Then the compound 3-thiomorpholinyl-8-oxo-8H-acenaphtho[1,2-b]pyrrole-9-carbonitrile and γ-cyclodextrin inclusion compound thereof were given by peritoneal injection, and the compound to be detected included by γ-cyclodextrin was given by oral administration. The detection conditions comprise:
Blank control group: the mice were not treated in any manner after the bearing cancer;
Control group (1): the mice were given a peritoneal injection of DMSO solution every other day after the bearing cancer, 10 days in total;
Control group (2): the mice were given a peritoneal injection of cyclodextrin solution every other day after the bearing cancer, 10 days in total;
Experimental group (1): the mice were given a peritoneal injection of DMSO solution equivalent to 0.03 mg/kg BW compound every other day after the bearing cancer, 10 days in total;
Experimental group (2): the mice were given a peritoneal injection of DMSO solution equivalent to 0.3 mg/kg BW compound every other day after the bearing cancer, 10 days in total;
Experimental group (3): the mice were given a peritoneal injection of inclusion compound water solution equivalent to 0.3 mg/kg BW compound every other day after the bearing cancer, 10 days in total;
Experimental group (4): the mice were given an intragastric administration of inclusion compounds water solution equivalent to 0.3 mg/kg BW compound every other day after the bearing cancer, 10 days in total;
During the experimental period, the length-diameter (a) and short diameter (b), which was perpendicular to the length-diameter, of the tumor were detected twice every week. The gross tumor volume was determined according to the formula: ½ab^2. The survival time of the animal was observed. The tumor inhibition rate was calculated by the tumor volume on the fortieth day.
With `N#CC1=C2C(=NC1=O)c1cccc3cccc2c13` [8-oxo-8H-acenaphtho[1,2-b]pyrrole-9-carbonitrile], the tumor inhibition rate result is recorded as “about 60%”.

Tested on in another data set: not listed separately
The experiment in a line: phase solubility experiment (solubility in water before and after cyclodextrin inclusion or complexation). The settings on record: thermodynamic from solid, Solubility of compounds, Table 1, compound per se, before inclusion.
`N#CC1=C2C(=NC1=O)c1cccc3cccc2c13` [8-oxo-8H-acenaphtho[1,2-b]pyrrole-9-carbonitrile] had a solubility of 0.12 µM (≈ 0.0276 µg/mL).

Broadly, the solubility is the dissolved amount per volume that the medium holds. Lower therefore signals little dissolved substance.
